Measurements from paper PMC6934184, “Selective DNA-PKcs inhibition extends the therapeutic index of localized radiotherapy and chemotherapy” (The Journal of Clinical Investigation, 2019).

Molecular target: T1, FGFR4 (Homo sapiens, UniProt P22455)
T1 construct: purchased Thermo Fisher Scientific (Life Technologies) SelectScreen
Test: SelectScreen Z'LYTE
Format: biochemical
How it was run: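 Percent values come from Thermo SelectScreen profiling of NU5455, combining activity and binding assays. CSF1R was run in Z'LYTE format at Km app ATP, and CAMK1 in Adapta format with ATP listed at 10.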

T1 sequence (P22455 22-802): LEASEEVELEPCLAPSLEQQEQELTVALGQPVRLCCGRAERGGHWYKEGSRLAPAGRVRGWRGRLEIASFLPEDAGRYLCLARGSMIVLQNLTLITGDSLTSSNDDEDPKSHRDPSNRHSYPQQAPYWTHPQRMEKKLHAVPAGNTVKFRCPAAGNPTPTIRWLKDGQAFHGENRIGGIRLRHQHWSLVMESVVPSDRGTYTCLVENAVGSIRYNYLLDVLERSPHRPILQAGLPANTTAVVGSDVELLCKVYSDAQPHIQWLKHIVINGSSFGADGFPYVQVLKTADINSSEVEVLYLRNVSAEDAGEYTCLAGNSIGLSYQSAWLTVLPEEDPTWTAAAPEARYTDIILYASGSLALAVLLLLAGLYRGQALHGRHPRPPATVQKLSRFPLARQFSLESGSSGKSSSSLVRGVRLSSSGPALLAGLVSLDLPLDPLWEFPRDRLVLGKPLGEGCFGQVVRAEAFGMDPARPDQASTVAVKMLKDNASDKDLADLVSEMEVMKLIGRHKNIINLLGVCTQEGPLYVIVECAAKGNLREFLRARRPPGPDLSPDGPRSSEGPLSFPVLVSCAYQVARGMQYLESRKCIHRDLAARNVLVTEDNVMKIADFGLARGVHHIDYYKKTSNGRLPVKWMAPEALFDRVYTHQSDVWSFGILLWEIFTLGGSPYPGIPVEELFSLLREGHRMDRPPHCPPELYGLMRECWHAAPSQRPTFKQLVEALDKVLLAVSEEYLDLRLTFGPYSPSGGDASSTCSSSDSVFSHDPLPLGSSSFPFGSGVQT

## CN(C(=O)CN1CCOCC1)c1ccc2sc3c(-c4cccc5c(=O)cc(N6CC7CCC(C6)O7)oc45)cccc3c2c1 [NU5455]
  inhibition at 1 µM: -3.1%
